Earlier results in patent US6897334B2 (Board of Regents of the University of Nebraska, priority 2003, dated 2005).

Settings: background statement

In the case of `CCOC(=O)CN(C)C(=N)N` [creatine ethyl ester, Creatine ethyl ester], the “solubility in an aqueous solution” value is given as “over 200 mg/ml”.
